Laboratory results taken from US5317018A, “Benzodiazepines and compositions for treating anxiety and panic disorders, and idiopathic and psychomotor epilepsy” (priority 1992, dated 1994).
“Also recorded” adds a separate entry of the source. Read-outs that look alike come from different tables or passages of the source.

Key:
rats [1] = experiment: Vogel punished drinking test, conflict paradigm (anticonflict effect); type: in vivo; conditions: Rattus norvegicus, iv, 0.25 h; i.v., 15 min before test, shock 0.8 mA; fiducial limits on following line
rats [2] = experiment: Vogel punished drinking test with PTZ, proconflict paradigm (anti-proconflict effect, anti-proconflict index); type: in vivo, rat; conditions: for ED50: Rattus norvegicus, iv, 0.25 h, i.v., 15 min before test, PTZ i.p., shock 0.35 mA, fiducial limits on following line; for anti-proconflict index: ratio of ED50 values anticonflict/antiproconflict; for antiproconflict index compared with reference compounds: in words, vs Bretazenil, prior art compound or diazepam
rats [3] = conditions: background, cited from earlier work; for potency in antagonizing conflict and proconflict responses: in words; for anti-proconflict index: Giusti et al. 1991
[4] = Duration of action at doses equipotent to Bretazenil; type: in vivo
[5] = background, in words; cited from earlier work
rats [6] = experiment: Development of tolerance to the anticonvulsant effect against bicuculline seizures; type: in vivo, rat; conditions: oral; for development of tolerance to anticonvulsant action: 3 times daily up to 70 days, in words
Description: The bicuculline seizure test (see Massotti et al., J. Pharmacol. Exp. Ther. 256: 1154-1156, 1991) consists in infusing a bicuculline solution (0.27 μmol/kg) into the rat tail vein at a constant rate (0.46 ml/min) and records the first sign of myoclonic jerk and the full myoclonic convulsion. The dose of bicuculline required to elicit these responses was taken as an index of the efficacy of diazepam and inventive compounds against seizures induced by a decrease of GABAergic tone (Massotti et al., J. Pharmacol. Exp. Ther. 256: 1154-1160, 1990). […] Possible development of tolerance to the antagonism of bicuculline convulsion was tested on various days after the beginning of the protracted treatment with the inventive compounds.

rats [7] = conditions: background, in words; cited from earlier work
rats [8] = experiment: Chemical kindling with pentylenetetrazole (PTZ), kindled seizures; type: in vivo, rat; conditions: per os; for ED50 vs kindled seizures: 30 min before PTZ 30 mg/kg i.p., n 25; for potency relative to diazepam in kindling seizure test: PTZ kindling
Description: Kindled seizures were induced in rats by i.p. injection of 30 mg/kg of PTZ every 2nd day for 9 weeks.

| Compound | ED50 (rats [1]) [µmol/kg] | ED50 (rats [2]) [µmol/kg] | anti-proconflict index (rats [2]) | anti-proconflict index (rats [3]) | antiproconflict index compared with reference compounds (rats [2]) | potency relative to diazepam in kindling seizure test (rats [8]) | also measured |
| --- | --- | --- | --- | --- | --- | --- | --- |
| NC(=O)c1ncn2c1CN=C(c1ccccc1Cl)c1cc(Cl)ccc1-2 [8-chloro-6-(2-chlorophenyl) -4H-imidazo-[1,5-a][1,4]benzodiazepine-3-carboxamide, reference compound] | 2 | 0.45 | 5.0 | – | – | – | – |
| CC(C)(C)OC(=O)c1ncn2c1[C@@H]1CCCN1C(=O)c1c(Br)cccc1-2 [Bretazenil, reference compound] | 2.4 | 0.2 | 12 | ~10 | – | – | potency in antagonizing conflict and proconflict responses (rats [3]): surpassed those of the anxiolytic BZD ligands diazepam, zolpidem, alpidem, and midazolam; also recorded: significantly more potent in antagonizing the proconflict effect; duration of action ([4]; Bretazenil, equipotent dose): 0.25 to 0.75 h |
| CN1C(=O)CN=C(c2ccccc2)c2cc(Cl)ccc21 [Diazepam, reference compound] | 2 | 1.9 | 1 | ~1 | – | – | development of tolerance in chronic maintenance therapy [5]: rapid development of tolerance; development of tolerance to anticonvulsant action (rats [6]): developed after a few days of treatment; prevention of development of kindling seizures (rats [7]): powerful agents to prevent the development of seizures; ED50 vs kindled seizures (rats [8]): 5.7 (2.9-11.2) |
| NC(=O)c1ncn2c1CN=C(c1ccccc1Br)c1cc(F)ccc1-2 [Example 9, 6-(2-Bromophenyl)-8-fluoro-4H-imidazo[1,5-a][1,4]benzodiazepine-3-carboxamide] | 2.9 | 0.061 | 48 | – | antiproconflict index larger than that of Bretazenil | approximately 20 fold | days of treatment without anticonvulsant tolerance (rats [6]; 3 times daily): ≥ 70 days; development of tolerance to anticonvulsant action (rats [6]): maintained its anticonvulsant effect unabated without tolerance; ED50 vs kindled seizures (rats [8]): 0.25 (.071-0.883) |
| CCNC(=O)c1ncn2c1CN=C(c1ccccc1Br)c1cc(F)ccc1-2 [Example 10, 6-(2-Bromophenyl)-N-ethyl-8-fluoro-4H-imidazo[1,5-a][1,4]-benzodiazepine-3-carboxamide] | 2.8 | 0.079 | 35 | – | antiproconflict index larger than that of Bretazenil | 12 fold | – |
| CCCNC(=O)c1ncn2c1CN=C(c1ccccc1Br)c1cc(F)ccc1-2 [Example 11(a)] | 2.74 | 0.44 | – | – | better than diazepam | 2.2 fold | duration of action ([4]; equipotent doses to Bretazenil): 3 to 6 h |
| CC(C)NC(=O)c1ncn2c1CN=C(c1ccccc1Br)c1cc(F)ccc1-2 [Example 11(b), 6-(2-Bromophenyl)-8-fluoro-N-(1-methylethyl)-4-H-imidazo[1,5-a][1,4]benzodiazepine-3-carboxamide] | 1.72 | 0.52 | – | – | better than diazepam | 2.5 fold | duration of action ([4]; equipotent doses to Bretazenil): 3 to 6 h |
| C=CCNC(=O)c1ncn2c1CN=C(c1ccccc1Br)c1cc(F)ccc1-2 [Example 11(c), 6-(2-Bromophenyl)-8-fluoro-N-(2-propenyl)-4H-imidazo[1,5-a][1,4]benzodiazepine-3-carboxamide] | 3.6 | 0.18 | 20 | – | antiproconflict index larger than that of Bretazenil | – | – |
| O=C(NCC1CC1)c1ncn2c1CN=C(c1ccccc1Br)c1cc(F)ccc1-2 [Example 11(d), 6-(2-Bromophenyl)-N-[(cyclopropyl)methyl]-8-fluoro-4H-imidazo[1,5-a][1,4]benzodiazepine-3-carboxamide] | 3.3 | 0.43 | – | – | better than diazepam | 2 fold | duration of action ([4]; equipotent doses to Bretazenil): 3 to 6 h |
| CCCN(CCC)C(=O)Cc1c(-c2ccc(Cl)cc2)nc2ccc(Cl)cn12 [alpidem] | – | – | – | ~1 | – | – | – |
| Cc1nnc2n1-c1ccc(Cl)cc1C(c1ccccc1)=NC2 [alprazolam] | – | – | – | ~10 | – | – | potency in antagonizing conflict and proconflict responses (rats [3]): surpassed those of the anxiolytic BZD ligands diazepam, zolpidem, alpidem, and midazolam; also recorded: significantly more potent in antagonizing the proconflict effect |
| O=C1CN=C(c2ccccc2Cl)c2cc([N+](=O)[O-])ccc2N1 [clonazepam] | – | – | – | ~10 | – | – | potency in antagonizing conflict and proconflict responses (rats [3]): surpassed those of the anxiolytic BZD ligands diazepam, zolpidem, alpidem, and midazolam; also recorded: significantly more potent in antagonizing the proconflict effect; development of tolerance in chronic maintenance therapy [5]: rapid development of tolerance; prevention of development of kindling seizures (rats [7]): powerful agents to prevent the development of seizures |
| Cc1ncc2n1-c1ccc(Cl)cc1C(c1ccccc1F)=NC2 [midazolam] | – | – | – | ~1 | – | – | – |
| Cc1ccc(-c2nc3ccc(C)cn3c2CC(=O)N(C)C)cc1 [zolpidem] | – | – | – | ~1 | – | – | – |
